# Data published in patent publication US4036957A, “Phenoxy compounds in combinations to suppress gastric bleeding in aspirin therapy” (priority 1975, dated 1977).
# Where two headings read alike, the source gives them in different places.
# Tests used:
# [1] = system: aspirin-induced bleeding; details: rat; for Gastric Bleeding Index / Percent Decrease In Mucosal Hemorrhage vs. Control / Total Hemoglobin Loss / Volume Gastric Secretion: aspirin ca 375 p.o.
# Protocol: The effect of glyceryl guaiacolate (Compound 8) on aspirin-induced bleeding in rats was studied using the following procedure. Female Sprague-Dawley rats, weighing 140-160 g. and fasted for 24 hrs. on wire were divided into groups of 10 animals each. All animals were anesthetized with Metofane® and a ligature placed at the pyloric-duodenal junction. Groups serving as controls received normal saline (4.0 ml/kg, i.p.). Some groups received normal saline and in addition were given aspirin (375 mg/kg, p.o.) in artificial gastric juice; the remaining groups received aspirin in the same amount and also glyceryl guaiacolate 30 min. prior to the aspirin. The aspirin was administered in artificial gastric juice (USP, […]) in a total volume of 2 ml. to each rat. Following a recovery period of 1 hr. the animals received saline, aspirin and glyceryl guaiacolate in the amounts and by the routes indicated. In most of the experiments, 90 min. following aspirin the rats were sacrificed by cervical dislocation. The stomachs were removed and gastric contents collected for further analysis. […] Hemoglobin loss produced by the aspirin was determined by the colorimetric method of Bing and Baker (J. Biol. Chem. 92: 589, 1931). The condition of the gastric mucosa was also assessed by determining the incidence and severity of damage using the scoring system described hereinabove to obtain the "Gastric Bleeding Index".
# Following the procedure of Example 26, methocarbamol (Compound 3 ) was tested further in rats via intraperitoneal and intraduodenal administration.
# [2] = system: aspirin-induced gastric bleeding; test: Prevention of aspirin-induced gastric bleeding in pyloric-ligated rats, i.p. test compound (Examples 1-22); format: in vivo, Female Sprague-Dawley rats; details: rat, aspirin 375 mg/kg p.o.
# Protocol: The prevention of aspirin-induced bleeding in rats was determined by the following procedure. Female Sprague-Dawley rats weighing 150-180 g. were fasted for 24 hours on wire and divided into groups of six animals each. The rats were anesthetized and a ligature placed at the pyloric-duodenal junction. Groups serving as controls received normal saline (4.0 ml/kg, i.p.). […] Some of the compounds were tested at 50 mg/kg, i.p. The rats were sacrificed 60 min. after aspirin administration by cervical dislocation. The volume of the gastric contents was determined and compared against that produced with the same amount of aspirin for change in volume. […] (Gradation between 0 to 40 is on an even scale).
# [3] = system: aspirin-induced gastric bleeding; format: in vivo, cats; details: cat
# Protocol: Fasted cats weighing […] were anesthetized with phenobarbital sodium (130 mg/kg, i.p.). Glyceryl guaiacolate was administered intravenously for a total of 2 hrs. beginning 60 min. prior to the topical application of the aspirin (10 mg) to the gastric mucosa. Throughout the experiment, artificial gastric juice (USP, pH 1.3) bathed the mucosa by means of the specially designed chamber. The number of bleeding sites occurring at various exposure sites were recorded at 15, 30 and 60 min. Glyceryl guaiacolate was given at doses of 10 and 30 mg/kg/hr via a previously cannulated jugular vein using an infusion pump (Harvard Apparatus Co., Model 1202). […] An important point is that with 30 mg/kg/hr, i.v., of glyercyl guaiacolate there was no bleeding at 30 min. compared with an average of 14 bleeding sites when no glyceryl guaiacolate was adminsitered. A total of 23 cats were used and there was a minimum of 24 aspirin exposure sites for each dose of glyceryl guaiacolate.
# [4] = 50 mg/kg i.p., Series 2, ± S.E.
# [5] = 50 mg/kg oral, Series 3, ± S.E.
# [6] = 100 mg/kg i.p., Series 1, ± S.E., P <0.05
# [7] = 100 mg/kg i.p., Series 1, P <0.05
# [8] = 100 mg/kg intraduodenal, ± S.E., P <0.05
# [9] = 100 mg/kg intraduodenal, P <0.05
# [10] = 100 mg/kg oral, Series 3, ± S.E.
# [11] = 200 mg/kg i.p., Series 2, ± S.E., P <0.05
# [12] = 200 mg/kg i.p., Series 2, P <0.05
# [13] = 200 mg/kg intraduodenal, ± S.E., P <0.05
# [14] = 200 mg/kg intraduodenal, P <0.05
# [15] = 200 mg/kg oral, Series 3, ± S.E.
compound,measurement,setting,value
"COc1ccccc1OCC(O)CO (stereo not drawn) [Compound 8, 3-(2-methoxyphenoxy)-1,2-propanediol]",effect on pH (gastric),[1],a similar effect on pH was not observed
same,volume of gastric secretion (in words),[1],significant reduction
same,Gastric Bleeding Index,"[1]; 50 mg/kg i.p., Series 2",26.0 ± 2.6
same,Percent Decrease In Mucosal Hemorrhage vs. Control,"[1]; 50 mg/kg i.p., Series 2",13.3%
same,Total Hemoglobin Loss,[1]; [4],26.7 ± 3.1 mg
same,Volume Gastric Secretion,[1]; [4],6.4 ± 0.4 mL
same,Gastric Bleeding Index,[1]; 50 mg/kg intraduodenal,18.0 ± 4.1
same,Percent Decrease In Mucosal Hemorrhage vs. Control,[1]; 50 mg/kg intraduodenal,10.0%
same,Total Hemoglobin Loss,"[1]; 50 mg/kg intraduodenal, ± S.E.",12.4 ± 2.3 mg
same,Volume Gastric Secretion,"[1]; 50 mg/kg intraduodenal, ± S.E.",5.0 ± 0.2 mL
same,Gastric Bleeding Index,"[1]; 50 mg/kg oral, Series 3",30.5 ± 2.4
same,Percent Decrease In Mucosal Hemorrhage vs. Control,"[1]; 50 mg/kg oral, Series 3",14.2%
same,Total Hemoglobin Loss,[1]; [5],29.4 ± 3.2 mg
same,Volume Gastric Secretion,[1]; [5],8.0 ± 0.3 mL
same,Total Hemoglobin Loss,[1]; [6],8.2 ± 2.5 mg
same,Volume Gastric Secretion,[1]; [6],4.2 ± 0.4 mL
same,Gastric Bleeding Index,[1]; [7],6.5 ± 4.7
same,Percent Decrease In Mucosal Hemorrhage vs. Control,[1]; [7],77%
same,Total Hemoglobin Loss,[1]; [8],7.7 ± 1.2 mg
same,Volume Gastric Secretion,[1]; [8],3.9 ± 0.2 mL
same,Gastric Bleeding Index,[1]; [9],9.5 ± 2.5
same,Percent Decrease In Mucosal Hemorrhage vs. Control,[1]; [9],57.5%
same,Gastric Bleeding Index,"[1]; 100 mg/kg oral, Series 3",21.0 ± 2.7
same,Percent Decrease In Mucosal Hemorrhage vs. Control,"[1]; 100 mg/kg oral, Series 3",41.5%
same,Total Hemoglobin Loss,[1]; [10],26.2 ± 4.6 mg
same,Volume Gastric Secretion,[1]; [10],6.5 ± 0.3 mL
same,Total Hemoglobin Loss,[1]; [11],14.5 ± 3.9 mg
same,Volume Gastric Secretion,[1]; [11],4.1 ± 0.4 mL
same,Gastric Bleeding Index,[1]; [12],6.0 ± 2.1
same,Percent Decrease In Mucosal Hemorrhage vs. Control,[1]; [12],80.0%
same,Total Hemoglobin Loss,[1]; [13],4.4 ± 1.0 mg
same,Volume Gastric Secretion,[1]; [13],3.5 ± 0.3 mL
same,Gastric Bleeding Index,[1]; [14],2.0 ± 1.1
same,Percent Decrease In Mucosal Hemorrhage vs. Control,[1]; [14],90.0%
same,Percent Decrease In Mucosal Hemorrhage vs. Control,"[1]; 200 mg/kg oral, Series 3",46.5%
same,Total Hemoglobin Loss,[1]; [15],20.2 ± 1.5 mg
same,Volume Gastric Secretion,[1]; [15],6.5 ± 0.5 mL
same,Gastric Bleeding Index,"[1]; 200 mg/kg oral, Series 3, P <0.05",19.0 ± 3.9
same,loss of blood into the gastric contents,[1]; 100 and 200 mg/kg,markedly reduced
same,aspirin-induced gastric irritation,[1]; 100 and 200 mg/kg by any route,markedly reduced
same,change in vivo at 50 mg/kg,"[2]; ip, 1 h, 50 mg/kg i.p., read-out: Percent Decrease in Mucosal Bleeding vs Control",-57%
same,change in vivo at 100 mg/kg,"[2]; ip, 1 h, 100 mg/kg i.p., read-out: Percent Decrease in Mucosal Bleeding vs Control",-40%
same,Gastric Bleeding Index,"[2]; score 0 to 40, 100 mg/kg i.p. (column head states no dose)",26.1
same,bleeding at 30 min,"[3]; 30 mg/kg/hr i.v., aspirin 10 mg topical",no bleeding
same,gastric bleeding produced by aspirin with increasing doses,[3]; 10 and 30 mg/kg/hr i.v.,correspondingly reduced
